From ChEMBL document CHEMBL1147972, “1,3-disubstituted 4-aminopiperidines as useful tools in the optimization of the 2-aminobenzo[a]quinolizine dipeptidyl peptidase IV inhibitors” (Bioorg Med Chem Lett, 2007)

Key:
Rattus norvegicus = experiment: Reduction in glucose level in fa/fa rat after oral glucose tolerance test at 0.3 mg/kg administered 2 hrs before glucose challenge; assay type: functional; parameters: scale not given: the % may be the effect or the level left
[1] = Solubility of the compound; assay type: physicochemical
[2] = Distribution coefficient, log D at pH 7.4; assay type: physicochemical; settings: octanol/water
[3] = Permeability coefficient across PAMPA; assay type: ADME; settings: read-out: permeability
Cytochrome P450 2C9 = Cytochrome P450 2C9 (Homo sapiens, UniProt P11712); experiment: Inhibition of CYP2C9; assay type: ADME
Liver microsomes [4] = experiment: Clearance in human liver microsome; assay type: ADME
Liver microsomes [5] = experiment: Clearance in rat liver microsome; assay type: ADME
Cytochrome P450 2D6 = Cytochrome P450 2D6 (Homo sapiens, UniProt P10635); experiment: Inhibition of CYP2D6; assay type: ADME
Cytochrome P450 3A4 = Cytochrome P450 3A4 (Homo sapiens, UniProt P08684); experiment: Inhibition of CYP3A4; assay type: ADME
Sequence of Cytochrome P450 3A4 (P08684 whole entry): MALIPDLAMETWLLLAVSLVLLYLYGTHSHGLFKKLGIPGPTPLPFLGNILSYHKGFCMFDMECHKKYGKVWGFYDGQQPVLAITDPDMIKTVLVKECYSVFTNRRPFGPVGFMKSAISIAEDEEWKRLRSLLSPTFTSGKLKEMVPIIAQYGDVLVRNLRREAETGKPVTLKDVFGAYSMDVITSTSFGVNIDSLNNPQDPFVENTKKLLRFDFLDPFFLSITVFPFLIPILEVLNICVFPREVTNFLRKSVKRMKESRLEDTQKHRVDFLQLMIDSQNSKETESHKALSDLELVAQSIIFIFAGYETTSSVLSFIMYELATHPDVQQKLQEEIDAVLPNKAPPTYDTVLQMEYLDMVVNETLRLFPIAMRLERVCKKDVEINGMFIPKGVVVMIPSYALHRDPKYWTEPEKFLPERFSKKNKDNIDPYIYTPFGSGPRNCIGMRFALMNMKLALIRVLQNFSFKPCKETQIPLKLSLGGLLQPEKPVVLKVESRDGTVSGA

Sequence of Cytochrome P450 2C9 (P11712 whole entry): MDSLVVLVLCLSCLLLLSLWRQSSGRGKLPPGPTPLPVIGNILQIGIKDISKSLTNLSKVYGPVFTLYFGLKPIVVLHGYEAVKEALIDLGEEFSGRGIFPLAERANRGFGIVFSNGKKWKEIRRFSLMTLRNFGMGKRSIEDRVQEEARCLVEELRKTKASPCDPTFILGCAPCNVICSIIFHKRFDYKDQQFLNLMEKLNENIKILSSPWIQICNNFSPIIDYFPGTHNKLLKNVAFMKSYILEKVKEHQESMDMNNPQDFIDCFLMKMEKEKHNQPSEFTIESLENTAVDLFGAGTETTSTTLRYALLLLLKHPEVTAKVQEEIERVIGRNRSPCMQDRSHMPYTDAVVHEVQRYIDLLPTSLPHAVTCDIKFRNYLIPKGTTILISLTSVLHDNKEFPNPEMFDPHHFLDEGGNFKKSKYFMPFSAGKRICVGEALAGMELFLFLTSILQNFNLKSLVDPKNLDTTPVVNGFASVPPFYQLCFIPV
Sequence of Cytochrome P450 2D6 (P10635 whole entry): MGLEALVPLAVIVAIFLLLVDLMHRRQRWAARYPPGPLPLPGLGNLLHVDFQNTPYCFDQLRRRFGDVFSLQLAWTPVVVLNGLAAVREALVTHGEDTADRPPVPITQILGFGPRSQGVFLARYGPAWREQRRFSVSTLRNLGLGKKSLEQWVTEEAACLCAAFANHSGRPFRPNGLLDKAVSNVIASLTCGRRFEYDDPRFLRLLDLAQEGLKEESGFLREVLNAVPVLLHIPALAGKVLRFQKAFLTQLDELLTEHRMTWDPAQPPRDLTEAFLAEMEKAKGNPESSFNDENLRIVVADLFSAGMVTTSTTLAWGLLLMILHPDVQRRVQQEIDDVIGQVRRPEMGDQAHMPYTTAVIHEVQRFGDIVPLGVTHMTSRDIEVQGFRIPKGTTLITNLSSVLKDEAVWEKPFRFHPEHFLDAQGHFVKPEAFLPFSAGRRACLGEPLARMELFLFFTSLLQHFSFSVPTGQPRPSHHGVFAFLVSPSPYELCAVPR

CCCC[C@H]1CN2CCc3cc(OC)c(OC)cc3[C@@H]2C[C@@H]1N
Activity (Rattus norvegicus): -16%
Solubility [1]: > 414 µg/mL
logD [2]: 0.8
Papp [3]: 2.5 ×10⁻⁶ cm/s
IC50 (Cytochrome P450 2C9): > 50 µM
clearance (Liver microsomes [4]): 0 µL/min/mg
clearance (Liver microsomes [5]): 4.7 µL/min/mg
IC50 (Cytochrome P450 2D6): > 50 µM
IC50 (Cytochrome P450 3A4): > 50 µM

COc1cc2c(cc1OC)[C@@H]1C[C@H](N)[C@@H](c3cccc(C)c3)CN1CC2
Activity (Rattus norvegicus): -41%
Solubility [1]: > 469 µg/mL
logD [2]: 1.3
Papp [3]: 3.4 ×10⁻⁶ cm/s
IC50 (Cytochrome P450 2C9): 15 µM
clearance (Liver microsomes [4]): 3 µL/min/mg
clearance (Liver microsomes [5]): 1 µL/min/mg
IC50 (Cytochrome P450 2D6): 11 µM
IC50 (Cytochrome P450 3A4): > 50 µM
